Values quoted from earlier work as cited in patent publication US20240165036A1, “ENCAPSULATED VITAMIN D” (Nulixir Inc., priority 2022, published 2024).

conditions: reference phases water and n-octanol; pH=7 unless stated otherwise

Compound	log P
O=C(/C=C/c1ccccc1)N1CCCC1 [(E)-1-cinnamoylpyrrolidine]	~2.2
NCCCC(=O)O [GABA, gamma-aminobutyric acid]	~−3
CCNC(=O)CC[C@H](N)C(=O)O [L-theanine]	~−3
Cn1cnc2c1c(=O)[nH]c(=O)n2C [theobromine]	~−0.78

Further lines, results first:

log P	Compound
~−2	N[C@@H](Cc1c[nH]c2ccc(O)cc12)C(=O)O [Dispersion 5-HTP, 5-hydroxytryptophan]
~−1.38	N[C@@H](Cc1ccccc1)C(=O)O [L-phenylalanine]
~0.4	O=C(O)c1cc(C(=O)O)c2c(n1)C(=O)C(=O)c1cc(C(=O)O)[nH]c1-2 [PQQ, pyrroloquinoline quinone]
~2.5	COc1cc(O)c2c(=O)c(OC)c(-c3ccc(O)cc3)oc2c1 [kumatakenin]
~2.8	COc1ccc(/C=C/c2cc(OC)cc(=O)o2)cc1 [yangonin]
